Our source for the MIC values is ChEMBL document CHEMBL1136460, “Novel oxazolidinone-quinolone hybrid antimicrobials” (Bioorg Med Chem Lett, 2003).

In brackets after ≈: the same amount, converted by molar mass.

One assay has as its system Haemophilus influenzae. Briefly: Antibacterial activity against Haemophilus influenzae (HI1008). In kind it is functional.
The subject of the next assay is Moraxella catarrhalis. Briefly: Antibacterial activity against Moraxella catarrhalis (MC1002). In kind it is functional.

On to `O=C(O)c1cn(C2CC2)c2cc(N3CCNCC3)c(F)cc2c1=O` [CIPROFLOXACIN], for which the MIC against Haemophilus influenzae was no more than 0.06 µg/mL; in the assay with Moraxella catarrhalis, 0.03 µg/mL (≈ 0.0905 µM).
